The target of series [1] is T1, Nuclear receptor ROR-gamma (Homo sapiens, UniProt P51449).
T1 sequence (P51449 whole entry): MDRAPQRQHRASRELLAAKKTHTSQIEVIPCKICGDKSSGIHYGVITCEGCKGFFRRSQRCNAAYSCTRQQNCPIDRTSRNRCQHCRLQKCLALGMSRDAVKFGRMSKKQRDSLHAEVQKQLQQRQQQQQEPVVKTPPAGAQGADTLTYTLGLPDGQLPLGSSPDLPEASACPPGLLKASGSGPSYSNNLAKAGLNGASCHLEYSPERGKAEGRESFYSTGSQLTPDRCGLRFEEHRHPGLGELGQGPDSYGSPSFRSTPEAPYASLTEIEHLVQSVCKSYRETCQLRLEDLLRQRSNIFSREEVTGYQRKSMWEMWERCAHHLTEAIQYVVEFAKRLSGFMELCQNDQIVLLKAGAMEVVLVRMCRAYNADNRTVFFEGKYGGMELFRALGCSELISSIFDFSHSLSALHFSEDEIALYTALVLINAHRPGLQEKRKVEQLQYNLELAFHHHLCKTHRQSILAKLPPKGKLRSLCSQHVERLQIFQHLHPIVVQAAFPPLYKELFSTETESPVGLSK
Description: Inverse agonist activity at recombinant human GST-tagged ROR-gamma receptor ligand binding domain assessed as inhibition of receptor and co-activator TRAP220 interaction by FRET assay.

For series [2], the target named is Cytochrome P450 3A4 (Homo sapiens, UniProt P08684). Description: Inhibition of CYP3A4 (unknown origin). It is filed as ADME.
Sequence of Cytochrome P450 3A4 (P08684 whole entry): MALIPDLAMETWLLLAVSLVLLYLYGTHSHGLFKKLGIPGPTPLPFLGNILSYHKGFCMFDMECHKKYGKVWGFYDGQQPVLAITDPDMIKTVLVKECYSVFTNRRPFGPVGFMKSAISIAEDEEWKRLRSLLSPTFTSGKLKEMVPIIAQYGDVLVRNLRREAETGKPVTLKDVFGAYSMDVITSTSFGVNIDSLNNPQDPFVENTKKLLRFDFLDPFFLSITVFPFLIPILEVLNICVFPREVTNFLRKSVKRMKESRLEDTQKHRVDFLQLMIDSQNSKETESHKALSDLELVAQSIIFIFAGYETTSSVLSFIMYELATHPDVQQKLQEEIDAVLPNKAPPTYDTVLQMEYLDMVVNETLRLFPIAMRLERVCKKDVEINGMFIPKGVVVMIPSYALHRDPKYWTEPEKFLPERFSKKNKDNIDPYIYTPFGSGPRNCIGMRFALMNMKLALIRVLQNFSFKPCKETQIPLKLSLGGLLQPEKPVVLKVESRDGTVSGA
Series [3] is described as follows: Aqueous solubility of compound at pH 6.8. Type of series: physicochemical.
Series [4] has as its target T2, Nuclear receptor subfamily 1 group I member 2 (Homo sapiens, UniProt O75469).
T2 sequence (O75469 whole entry): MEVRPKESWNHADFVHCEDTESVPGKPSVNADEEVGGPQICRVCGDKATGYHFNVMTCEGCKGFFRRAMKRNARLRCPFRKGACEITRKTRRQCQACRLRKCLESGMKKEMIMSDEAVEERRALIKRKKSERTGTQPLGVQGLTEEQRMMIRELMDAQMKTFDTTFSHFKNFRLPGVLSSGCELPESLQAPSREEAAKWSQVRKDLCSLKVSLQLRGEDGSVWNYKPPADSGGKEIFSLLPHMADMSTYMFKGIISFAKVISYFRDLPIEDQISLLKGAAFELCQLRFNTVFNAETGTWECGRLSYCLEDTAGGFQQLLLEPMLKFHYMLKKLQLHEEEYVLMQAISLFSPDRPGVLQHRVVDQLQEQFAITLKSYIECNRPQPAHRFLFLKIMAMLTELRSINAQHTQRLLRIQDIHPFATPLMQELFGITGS
Description: Agonist activity at PXR (unknown origin).

The target of series [5] is T2, Nuclear receptor subfamily 1 group I member 2. Put plainly: Agonist activity at PXR (unknown origin) at 10 uM.
The target in series [6] is Liver X receptor (Homo sapiens) (UniProt Q13133+P55055). Description: Agonist activity at LXR (unknown origin) at 10 uM. Type of series: protein assay.
The target in series [7] is T3, Bile acid receptor (Homo sapiens) (UniProt Q96RI1).
T3 sequence (whole entry): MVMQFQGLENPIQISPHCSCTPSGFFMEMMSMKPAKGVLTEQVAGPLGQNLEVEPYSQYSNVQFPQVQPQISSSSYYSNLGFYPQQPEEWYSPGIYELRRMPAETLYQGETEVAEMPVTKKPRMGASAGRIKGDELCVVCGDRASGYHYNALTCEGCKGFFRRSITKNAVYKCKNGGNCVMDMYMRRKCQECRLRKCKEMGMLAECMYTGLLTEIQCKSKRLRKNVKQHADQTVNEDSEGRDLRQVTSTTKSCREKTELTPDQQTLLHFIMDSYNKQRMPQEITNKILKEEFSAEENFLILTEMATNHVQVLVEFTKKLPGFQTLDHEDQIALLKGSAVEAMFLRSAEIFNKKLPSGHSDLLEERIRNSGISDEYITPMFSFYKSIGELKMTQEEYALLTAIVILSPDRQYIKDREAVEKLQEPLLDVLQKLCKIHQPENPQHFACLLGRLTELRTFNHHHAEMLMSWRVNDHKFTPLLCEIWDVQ
Description: Agonist activity at FXR (unknown origin) at 10 uM.

For series [8], the target named is T4, Nuclear receptor ROR-alpha (Homo sapiens, UniProt P35398).
T4 sequence (P35398 whole entry): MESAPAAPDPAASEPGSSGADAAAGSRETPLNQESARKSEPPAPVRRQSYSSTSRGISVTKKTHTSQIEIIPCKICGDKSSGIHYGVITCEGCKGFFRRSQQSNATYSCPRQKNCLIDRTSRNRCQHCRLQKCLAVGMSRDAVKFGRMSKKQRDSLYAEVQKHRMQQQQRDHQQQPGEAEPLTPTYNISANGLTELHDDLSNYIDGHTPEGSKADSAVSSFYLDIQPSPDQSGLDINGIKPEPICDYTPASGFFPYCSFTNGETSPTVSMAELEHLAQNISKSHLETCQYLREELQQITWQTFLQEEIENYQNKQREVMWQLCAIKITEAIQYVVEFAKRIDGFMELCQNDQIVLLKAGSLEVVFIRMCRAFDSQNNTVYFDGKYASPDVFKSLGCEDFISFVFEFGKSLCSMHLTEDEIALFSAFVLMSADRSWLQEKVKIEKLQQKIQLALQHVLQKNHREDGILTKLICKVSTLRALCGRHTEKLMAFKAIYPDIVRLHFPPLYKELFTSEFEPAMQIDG
Description: Inverse agonist activity at human ROR-alpha transfected in HEK293T cells by Gal4 luciferase reporter gene assay. It is filed as cell-based, HEK-293T.

Series [9] deals with T5, Nuclear receptor ROR-beta (Homo sapiens, UniProt Q92753).
T5 sequence (Q92753 whole entry): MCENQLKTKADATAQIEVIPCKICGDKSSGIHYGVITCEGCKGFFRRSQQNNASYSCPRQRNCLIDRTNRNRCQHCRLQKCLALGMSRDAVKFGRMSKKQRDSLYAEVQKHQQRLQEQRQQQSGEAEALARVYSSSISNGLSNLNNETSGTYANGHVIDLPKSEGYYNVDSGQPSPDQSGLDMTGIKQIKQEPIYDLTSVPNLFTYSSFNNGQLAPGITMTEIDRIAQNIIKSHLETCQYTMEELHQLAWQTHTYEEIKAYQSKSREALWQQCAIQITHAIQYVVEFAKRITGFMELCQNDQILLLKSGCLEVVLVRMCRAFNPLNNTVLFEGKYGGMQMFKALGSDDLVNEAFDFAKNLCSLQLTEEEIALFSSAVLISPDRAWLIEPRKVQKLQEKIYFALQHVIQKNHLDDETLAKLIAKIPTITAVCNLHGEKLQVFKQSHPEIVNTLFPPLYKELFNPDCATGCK
Description: Inverse agonist activity at human ROR-beta transfected in HEK293T cells by Gal4 luciferase reporter gene assay. It is filed as cell-based, HEK-293T. In general terms: A reporter such as luciferase makes a cellular process visible.

The values below come from ChEMBL document CHEMBL3792338, “Discovery of biaryls as RORγ inverse agonists by using structure-based design” (Bioorg Med Chem Lett, 2016).

pEC50, pIC50: −log10 of the molar value. In brackets after ≈: the same amount, converted by molar mass.

As a reminder, the pIC50 is the negative decadic logarithm of the IC50, by convention in mol/L. Usually solubility stands for the dissolved amount per volume that the medium holds. In general, pEC50 refers to the negative decadic logarithm of the EC50, by convention in mol/L. High values mean a small EC50, low ones a large EC50.

For `O=C(c1cc(F)cc(-c2ccc3c(c2)CCCN3C(=O)c2c(F)cccc2Cl)c1)N1CCOCC1`, the negative logarithm of the IC50 (pIC50) in [1] is 5.09.

For the molecule `NC(=O)c1cccc(-c2ccc(N(CC(F)(F)F)S(=O)(=O)c3cccc(Cl)c3)cc2)c1`, in series [1], the pIC50 was 5.42.

Regarding `Cc1cc(O)ccc1-c1ccc(N(CC(F)(F)F)S(=O)(=O)c2cccc3c2ccn3C)cc1`, the pIC50 in series [1] is 6.68. As for `Cc1ccc(S(=O)(=O)N(CC(F)(F)F)c2ccc3c(c2)CCCN3C(=O)c2c(F)cccc2Cl)cc1C`, the “inhibition (INH)” value in [2] is recorded as “Active”. Moreover, the solubility entry in [3] (buffer) is on record as “Insoluble”. Also, the negative logarithm of the IC50 (pIC50) in series [1] is 8.00. Moreover, the outcome in [4] was Active.

For `Cc1ccc(S(=O)(=O)Nc2ccc3c(c2)CCCN3C(=O)c2cccs2)cc1C`, the pIC50 in series [1] is 5.83. The same measure, in the same setting: the figure for `Cc1cc(C2(C(=O)O)CC2)ccc1-c1ccc(N(CC(F)(F)F)S(=O)(=O)c2cccc3c2ccn3C)cc1` is 6.04; for `Cc1ccc(S(=O)(=O)N(CC(F)(F)F)c2ccc3c(c2)CCCN3C(=O)c2cccs2)cc1C` it is 6.70. The same measure, in the same setting: the value for `Cc1cc2nccn2cc1-c1ccc(N(CC(F)(F)F)S(=O)(=O)c2cccc3c2ccn3C)cc1` was 5.55; that for `Cc1cc(CO)ccc1-c1ccc(N(CC(F)(F)F)S(=O)(=O)c2cccc3c2ccn3C)cc1` was 6.20.

As for `CNC(=O)c1cccc(-c2ccc(N(CC(F)(F)F)S(=O)(=O)c3cccc4c3ccn4C)cc2)c1`, the negative logarithm of the IC50 (pIC50) in series [1] is 5.49.

As to `Cc1cc2nccn2cc1-c1ccc(N(CC(F)(F)F)S(=O)(=O)c2cccc(Cl)c2)cc1`, the pIC50 in [1] is 6.28. Turning to `O=C(c1ccc(F)c(-c2ccc3c(c2)CCCN3C(=O)c2c(F)cccc2Cl)c1)N1CCCC1`, in [1], the pIC50 was 5.72. Take `CNS(=O)(=O)c1cccc(-c2ccc3c(c2)CCCN3C(=O)c2c(F)cccc2Cl)c1`: the pIC50 in [1] is 5.19. For `Cc1cc(C2(C(=O)O)CC2)ccc1-c1ccc(N(CC(F)(F)F)S(=O)(=O)c2cccc(Cl)c2)cc1`, the pIC50 in series [1] was less than 5.00. In the case of `Cn1ccc2c(S(=O)(=O)N(CC(F)(F)F)c3ccc(C(O)(C(F)(F)F)C(F)(F)F)cc3)cccc21`, the solubility in series [3] (aqueous, read-out: solubility) was less than 0.5 µg/mL. Further, the Activity in [5], in series [6] and in series [7] was 100% each time. For the same molecule, in series [1], the pIC50 is 7.14. For `Cc1cc(CO)ccc1-c1ccc(N(CC(F)(F)F)S(=O)(=O)c2cccc(Cl)c2)cc1`, the pIC50 in series [1] was 5.19. Consider `O=S(=O)(c1cccc(Cl)c1)N(CC(F)(F)F)c1ccc(C(O)(C(F)(F)F)C(F)(F)F)cc1`, for which the solubility in [3] (aqueous, read-out: solubility) is less than 0.5 µg/mL. Moreover, the Activity in [5], in series [6] and in series [7] was 100% in each case. Also, in series [1], the negative-log IC50 (pIC50) was 7.14. Take `NC(=O)c1ccc(Cl)c(-c2ccc(N(CC(F)(F)F)S(=O)(=O)c3cccc(Cl)c3)cc2)c1`: the pIC50 in series [1] is 5.38. Still for that read-out and setting: the value for `NC(=O)c1ccccc1-c1ccc2c(c1)CCCN2C(=O)c1c(F)cccc1Cl` was less than 5.00. `NC(=O)c1ccc(Cl)c(-c2ccc3c(c2)CCCN3C(=O)c2c(F)cccc2Cl)c1`: in series [3] (aqueous, read-out: solubility), the solubility turned out to be 0.04 µg/mL (≈ 0.0902 µM). Further, the pEC50 in series [8] is 6.41; in series [9], 5.96. Turning to `CNC(=O)c1cccc(-c2ccc(N(CC(F)(F)F)S(=O)(=O)c3cccc(Cl)c3)cc2)c1`, the negative-log IC50 (pIC50) in series [1] was less than 5.00. Still for that read-out and setting: the value for `Cc1cc(O)ccc1-c1ccc(N(CC(F)(F)F)S(=O)(=O)c2cccc(Cl)c2)cc1` was 6.28.

As for `Cn1ccc2c(S(=O)(=O)N(CC(F)(F)F)c3ccc4c(c3)CCCN4C(=O)c3cccs3)cccc21`, the pIC50 in series [1] is 7.25. For the molecule `NS(=O)(=O)c1cccc(-c2ccc3c(c2)CCCN3C(=O)c2c(F)cccc2Cl)c1`, in series [1], the pIC50 is 5.00. On the same count and under the same terms, the value for `Cn1ccc2c(S(=O)(=O)N(CC(F)(F)F)c3ccc(-c4cccc(C(N)=O)c4)cc3)cccc21` was 5.82. Consider `CNC(=O)c1ccc(F)c(-c2ccc(N(CC(F)(F)F)S(=O)(=O)c3cccc(Cl)c3)cc2)c1`, for which the pIC50 in series [1] was 5.11.

Turning to `CNC(=O)c1ccc(F)c(-c2ccc(N(CC(F)(F)F)S(=O)(=O)c3cccc4c3ccn4C)cc2)c1`, the pIC50 in series [1] is 5.33.
